Assay results as given in the supplement of paper PMC4862054.

Assays:
Conditions in all cases: incubation time: 72 h
CAL-148 = assay: normalised viability (% of control), CellTiter-Blue; higher = more viable cells (about 100 = DMSO control)
In short: (§1)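 Breast cancer cell lines were treated for 72 h in 384-well format and measured by CellTiter-Blue fluorescence at 560/590 nm. Results were normalised per plate to vehicle (100) and a positive kill control (0). The entry is normalised viability at a single listed concentration of the series.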

BT-549 [1] = assay: as above
In short: as §1

MDA-MB-468 [2] = assay: as above
In short: as §1

MDA-MB-436 [3] = assay: as above
In short: as §1

Hs578T [4] = assay: as above
In short: as §1

MDA-MB-453 [5] = assay: as above
In short: as §1

HDQ-P1 [6] = assay: as above
In short: as §1

MFM-223 [7] = assay: as above
In short: as §1

HCC1143 [8] = assay: as above
In short: as §1

CAL-120 [9] = assay: as above
In short: as §1

CAL-85-1 = assay: as above
In short: as §1

BT-549 [10] = assay: drug sensitivity score (DSS), CellTiter-Glo (DSS (AUC-based score)); higher = stronger drug effect (viability inhibition or cytotoxicity); extreme values may be limits of the assay
In short: (§2)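 The area under the fitted dose-response curve was used to calculate the drug sensitivity score. Cells from breast cancer lines were incubated for 72 h in 384-well plates with compound at 5 concentrations spaced 10-fold over a 10,000-fold range specific to each compound. Plates were read for CellTox Green and then CellTiter-Glo, and normalised to 0.1 % DMSO and a positive kill control.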

MDA-MB-468 [11] = assay: as above
In short: as §2

HCC1599 = assay: as above
In short: as §2

MDA-MB-436 [12] = assay: as above
In short: as §2

BT-474 = assay: as above
In short: as §2

HCC1937 = assay: as above
In short: as §2

DU-4475 = assay: as above
In short: as §2

MCF-10A = assay: as above
In short: as §2

Hs578T [13] = assay: as above
In short: as §2

MDA-MB-453 [14] = assay: as above
In short: as §2

CAL-51 = assay: as above
In short: as §2

SK-BR-3 = assay: as above
In short: as §2

HDQ-P1 [15] = assay: as above
In short: as §2

MFM-223 [16] = assay: as above
In short: as §2

HCC1143 [17] = assay: as above
In short: as §2

CAL-120 [18] = assay: as above
In short: as §2

MDA-MB-231 = assay: as above
In short: as §2

Compound	normalised viability (CAL-148; 100 nM) [%]	normalised viability (BT-549 [1]; 10000 nM) [%]	normalised viability (MDA-MB-468 [2]; 10000 nM) [%]	normalised viability (MDA-MB-436 [3]; 10000 nM) [%]	normalised viability (Hs578T [4]; 10000 nM) [%]	normalised viability (MDA-MB-453 [5]; 100 nM) [%]	normalised viability (HDQ-P1 [6]; 100 nM) [%]	normalised viability (MFM-223 [7]; 10000 nM) [%]	normalised viability (HCC1143 [8]; 10000 nM) [%]	normalised viability (CAL-120 [9]; 10000 nM) [%]	normalised viability (CAL-85-1; 100 nM) [%]	drug sensitivity score (BT-549 [10])	drug sensitivity score (MDA-MB-468 [11])	drug sensitivity score (HCC1599)	drug sensitivity score (MDA-MB-436 [12])	drug sensitivity score (BT-474)	drug sensitivity score (HCC1937)	drug sensitivity score (DU-4475)	drug sensitivity score (MCF-10A)	drug sensitivity score (Hs578T [13])	drug sensitivity score (MDA-MB-453 [14])	drug sensitivity score (CAL-51)	drug sensitivity score (SK-BR-3)	drug sensitivity score (HDQ-P1 [15])	drug sensitivity score (MFM-223 [16])	drug sensitivity score (HCC1143 [17])	drug sensitivity score (CAL-120 [18])	drug sensitivity score (MDA-MB-231)	normalised viability (CAL-148; 10 nM) [%]	normalised viability (BT-549 [1]; 1000 nM) [%]	normalised viability (MDA-MB-468 [2]; 1000 nM) [%]	normalised viability (MDA-MB-436 [3]; 1000 nM) [%]	normalised viability (Hs578T [4]; 1000 nM) [%]	normalised viability (MDA-MB-453 [5]; 10 nM) [%]	normalised viability (HDQ-P1 [6]; 10 nM) [%]	normalised viability (MFM-223 [7]; 1000 nM) [%]	normalised viability (HCC1143 [8]; 1000 nM) [%]	normalised viability (CAL-120 [9]; 1000 nM) [%]	normalised viability (CAL-85-1; 10 nM) [%]
COc1ccc(-c2ccc3c(N4CCOC[C@@H]4C)nc(N4CCOC[C@@H]4C)nc3n2)cc1CO [AZD8055]	30.4	14.4	21.4	40.1	17.6	21.1	45.6	14.6	28.4	9.25	46.3	23.9	22.2	5.62	18.9	13.7	14.9	16.5	19.3	20.2	22.2	23.4	30.3	20.9	23.8	20.2	23.8	16.8											
CN1CCN(CCOc2cc(OC3CCOCC3)c3c(Nc4c(Cl)ccc5c4OCO5)ncnc3c2)CC1 [Saracatinib]	85.3	47.4	57.8	72.1	69.7	105	111	77.1	46.2	61.1	98	3.75	3.3	2.67	0.426	6.52	3.31	0	13.4	2.32	3.51	5.08	2.63	9.63	0	2.8	2.85	8.36											
CC[C@]1(O)C[C@H]2CN(CCc3c([nH]c4ccccc34)[C@@](C(=O)OC)(c3cc4c(cc3OC)N(C=O)[C@H]3[C@@](O)(C(=O)OC)[C@H](OC(C)=O)[C@]5(CC)C=CCN6CC[C@]43[C@@H]65)C2)C1 [Vincristine]	20.6	20.2	38.4	50.3	15.9	30.8	43.8	20.5	33.6	20.6	39.2	21.1	23	20	17.1	11.5	7.53	6.4	10.1	16.6	10.5	11.7	27.7	7.83	11.6	13.6	11.1	11.5	21.4	14.6	41.1	30.2	12.7	26.9	46.4	27.9	32.1	19.9	33.4
C/C(=C\c1csc(C)n1)[C@@H]1C[C@@H]2O[C@]2(C)CCC[C@H](C)[C@H](O)[C@@H](C)C(=O)C(C)(C)[C@@H](O)CC(=O)O1 [Patupilone]												20.5	18.2	2.26	15	5.69	0.309	6.14	8.33	12.7	5.87	19.1	15.1	4.83	3.26	13.5	5.48	6.83	32.3	22.1	54.8	40.1	13.2	47.3	92.5	45.7	32	23.4	33.9
